pIC50: −log10 of the molar value.
Molecular target: T1, Chk1 (Homo sapiens, UniProt O14757)
T1 construct: purchased Upstate Biotechnology
T1 sequence (O14757 1-476): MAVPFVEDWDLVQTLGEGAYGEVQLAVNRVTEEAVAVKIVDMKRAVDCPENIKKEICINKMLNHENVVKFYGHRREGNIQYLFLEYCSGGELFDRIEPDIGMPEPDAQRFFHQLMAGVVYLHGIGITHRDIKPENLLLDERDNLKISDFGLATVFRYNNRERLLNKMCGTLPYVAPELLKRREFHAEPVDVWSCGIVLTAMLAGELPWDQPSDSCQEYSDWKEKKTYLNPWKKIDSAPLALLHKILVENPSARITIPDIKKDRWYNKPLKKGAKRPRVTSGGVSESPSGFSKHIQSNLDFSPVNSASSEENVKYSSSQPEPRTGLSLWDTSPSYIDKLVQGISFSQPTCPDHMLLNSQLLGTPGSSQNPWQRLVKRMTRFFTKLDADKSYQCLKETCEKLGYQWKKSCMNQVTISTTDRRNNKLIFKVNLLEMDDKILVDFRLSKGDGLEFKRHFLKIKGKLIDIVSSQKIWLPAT
Experiment: Chk1 kinase assay: incorporation of γ-33P ATP into immobilized myelin basic protein
Assay type: biochemical
Details: Table 11; Chk1 only; read-out: Chk1 IC50
Outline: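 Radiometric filter-free format: Chk1 10 nM, 10 μM ATP; Chk2 20 nM, 30 μM ATP; γ-33P ATP tracer; immobilized MBP substrate; Hepes pH 7.6, 10 mM MgCl2, 1 mM DTT; 1 h RT; 1% DMSO. Scintillation counting of washed plates. IC50/Ki from curve fit.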

| SMILES | pIC50 |
| --- | --- |
| Nc1ncc(-c2cccc(C(=O)NCc3ccccc3)c2)nc1C(=O)N1CCC(N)CC1 [Example 618, 3-{5-amino-6-[(4-aminopiperidin-1-yl)carbonyl]pyrazin-2-yl}-N-(phenylmethyl)benzamide] | ≤ 5.00 |
| CN1CCN(NC(=N)c2nc(-c3cccc(C(=O)NCc4ccccc4)c3)cnc2N)CC1 [Example 621, 3-(5-amino-6-{imino[(4-methylpiperazin-1-yl)amino]methyl}pyrazin-2-yl)-N-(phenylmethyl)benzamide] | ≤ 5.00 |
| N=C(NN1CCCCC1)c1nc(-c2cccc(C(=O)NCc3ccccc3)c2)cnc1N [Example 622, 3-{5-amino-6-[imino(piperidin-1-ylamino)methyl]pyrazin-2-yl}-N-(phenylmethyl)benzamide] | ≤ 5.00 |
| COC[C@H]1CCCN1NC(=N)c1nc(-c2cccc(C(=O)NCc3ccccc3)c2)cnc1N [Example 624, 3-{5-amino-6-[imino({(2R)-2-[(methyloxy)methyl]pyrrolidin-1-yl}amino)methyl]pyrazin-2-yl}-N-(phenylmethyl)benzamide] | ≤ 5.00 |
| CCOC(=O)CN/N=C(\C)c1nc(-c2cccc(C(=O)NCc3ccccc3)c2)cnc1N [Example 628, ethyl ((2E)-2-{1-[3-amino-6-(3-{[(phenylmethyl)amino]carbonyl}phenyl)pyrazin-2-yl]ethylidene}hydrazino)acetate] | ≤ 5.00 |
| C/C(=N\Nc1ccc(S(C)(=O)=O)cc1)c1nc(-c2cccc(C(=O)NCc3ccccc3)c2)cnc1N [Example 630, 3-(5-amino-6-{(1E)-N-[4-(methylsulfonyl)phenyl]ethanehydrazonoyl}pyrazin-2-yl)-N-(phenylmethyl)benzamide] | ≤ 5.00 |
| C/C(=N\Nc1ccc(C#N)cc1)c1nc(-c2cccc(C(=O)NCc3ccccc3)c2)cnc1N [Example 631, 3-{5-amino-6-[(1E)-N-(4-cyanophenyl)ethanehydrazonoyl]pyrazin-2-yl}-N-(phenylmethyl)benzamide] | ≤ 5.00 |
| C/C(=N\Nc1ccccn1)c1nc(-c2cccc(C(=O)NCc3ccccc3)c2)cnc1N [Example 632, 3-{5-amino-6-[(1E)-N-pyridin-2-ylethanehydrazonoyl]pyrazin-2-yl}-N-(phenylmethyl)benzamide] | ≤ 5.00 |
| C/C(=N\Nc1ccc(OC(F)(F)F)cc1)c1nc(-c2cccc(C(=O)NCc3ccccc3)c2)cnc1N [Example 634, 3-[5-amino-6-((1E)-N-{4-[(trifluoromethyl)oxy]phenyl}ethanehydrazonoyl)pyrazin-2-yl]-N-(phenylmethyl)benzamide] | ≤ 5.00 |
| CC(=NNc1ccc([N+](=O)[O-])cc1)c1nc(-c2cccc(C(=O)NCc3ccccc3)c2)cnc1N [Example 635, 3-(5-Amino-6-{1-[(4-nitro-phenyl)-hydrazono]-ethyl}-pyrazin-2-yl)-N-benzyl-benzamide] | ≤ 5.00 |
| C/C(=N\n1nnc2ccccc21)c1nc(-c2cccc(C(=O)NCc3ccccc3)c2)cnc1N [Example 637, 3-{5-amino-6-[(1E)-N-1H-1,2,3-benzotriazol-1-ylethanimidoyl]pyrazin-2-yl}-N-(phenylmethyl)benzamide] | ≤ 5.00 |
| CN/N=C(\C)c1nc(-c2cccc(C(=O)NCc3ccccc3)c2)cnc1N [Example 638, 3-{5-amino-6-[(1E)-N-methylethanehydrazonoyl]pyrazin-2-yl}-N-(phenylmethyl)benzamide] | ≤ 5.00 |
| C/C(=N\Nc1ccc(C(F)(F)F)cc1)c1nc(-c2cccc(C(=O)NCc3ccccc3)c2)cnc1N [Example 640, 3-(5-amino-6-{(1E)-N-[4-(trifluoromethyl)phenyl]ethanehydrazonoyl}pyrazin-2-yl)-N-(phenylmethyl)benzamide] | ≤ 5.00 |
| Nc1ncc(-c2cccc(C(=O)NCc3ccccc3)c2)nc1C(=O)NCCCNC(=O)c1ccco1 [Example 648, 3-amino-N-{3-[(furan-2-ylcarbonyl)amino]propyl}-6-(3-{[(phenylmethyl)amino]carbonyl}phenyl)pyrazine-2-carboxamide] | 5.00 to 6.00 |
| Nc1ncc(-c2cccc(C(=O)N[C@H]3CCc4ccccc43)c2)nc1C(=O)N[C@H]1CCN(C(=O)c2ccncc2)C1 [Example 649, 3-amino-6-(3-{[(1S)-2,3-dihydro-1H-inden-1-ylamino]carbonyl}phenyl)-N-[(3S)-1-(pyridin-4-ylcarbonyl)pyrrolidin-3-yl]pyrazine-2-carboxamide] | ≤ 5.00 |

Second part, the compound after the results:

| pIC50 | SMILES |
| --- | --- |
| 5.00 to 6.00 | N=C(NNc1ccccc1)c1nc(-c2cccc(C(=O)NCc3ccccc3)c2)cnc1N [Example 619, 3-{5-amino-6-[imino(2-phenylhydrazino)methyl]pyrazin-2-yl}-N-(phenylmethyl)benzamide] |
| 5.00 to 6.00 | N=C(NN1CCOCC1)c1nc(-c2cccc(C(=O)NCc3ccccc3)c2)cnc1N [Example 620, 3-{5-amino-6-[imino(morpholin-4-ylamino)methyl]pyrazin-2-yl}-N-(phenylmethyl)benzamide] |
| 5.00 to 6.00 | N=C(NN1CCCCCC1)c1nc(-c2cccc(C(=O)NCc3ccccc3)c2)cnc1N [Example 623, 3-{5-amino-6-[(azepan-1-ylamino)(imino)methyl]pyrazin-2-yl}-N-(phenylmethyl)benzamide] |
| 6.00 to 7.30 | Nc1ncc(-c2cccc(CO)c2)nc1-c1nc(C2CCCNC2)n[nH]1 (centres unmarked) [Example 625, {3-[5-amino-6-(3-piperidin-3-yl-1H-1,2,4-triazol-5-yl)pyrazin-2-yl]phenyl}methanol] |
| 5.00 to 6.00 | C/C(=N\N1CCOCC1)c1nc(-c2cccc(C(=O)NCc3ccccc3)c2)cnc1N [Example 626, 3-{5-amino-6-[(1E)-N-morpholin-4-ylethanimidoyl]pyrazin-2-yl}-N-(phenylmethyl)benzamide] |
| 5.00 to 6.00 | C/C(=N\Nc1ccc(C(=O)O)cc1)c1nc(-c2cccc(C(=O)NCc3ccccc3)c2)cnc1N [Example 627, 4-((2E)-2-{1-[3-amino-6-(3-{[(phenylmethyl)amino]carbonyl}phenyl)pyrazin-2-yl]ethylidene}hydrazino)benzoic acid] |
| 6.00 to 7.30 | C/C(=N\N(C)C)c1nc(-c2cccc(C(=O)NCc3ccccc3)c2)cnc1N [Example 629, 3-{5-amino-6-[(1E)-N,N-dimethylethanehydrazonoyl]pyrazin-2-yl}-N-(phenylmethyl)benzamide] |
| 5.00 to 6.00 | C/C(=N\NC(=N)N)c1nc(-c2cccc(C(=O)NCc3ccccc3)c2)cnc1N [Example 633, 3-(5-amino-6-{(1E)-N-[amino(imino)methyl]ethanehydrazonoyl}pyrazin-2-yl)-N-(phenylmethyl)benzamide] |
| 5.00 to 6.00 | C/C(=N\Nc1nccc(C(F)(F)F)n1)c1nc(-c2cccc(C(=O)NCc3ccccc3)c2)cnc1N [Example 636, 3-(5-amino-6-{(1E)-N-[4-(trifluoromethyl)pyrimidin-2-yl]ethanehydrazonoyl}pyrazin-2-yl)-N-(phenylmethyl)benzamide] |
| 6.00 to 7.30 | Nc1ncc(-c2cccc(CN[C@H]3CCc4ccccc43)c2)nc1-c1nc(C2CCNCC2)n[nH]1 [Example 639, 5-(3-{[(1S)-2,3-dihydro-1H-inden-1-ylamino]methyl}phenyl)-3-(3-piperidin-4-yl-1H-1,2,4-triazol-5-yl)pyrazin-2-amine] |
| 5.00 to 6.00 | C/C(=N\Nc1ccccc1)c1nc(-c2cccc(C(=O)NCc3ccccc3)c2)cnc1N [Example 641, 3-{5-amino-6-[(1E)-N-phenylethanehydrazonoyl]pyrazin-2-yl}-N-(phenylmethyl)benzamide] |
| 6.00 to 7.30 | C/C(=N\N1CCN(C)CC1)c1nc(-c2cccc(C(=O)NCc3ccccc3)c2)cnc1N [Example 642, 3-{5-amino-6-[(1E)-N-(4-methylpiperazin-1-yl)ethanimidoyl]pyrazin-2-yl}-N-(phenylmethyl)benzamide] |
| 6.00 to 7.30 | Nc1ncc(-c2cccc(CO)c2)nc1-c1nc(C2CCNC2)n[nH]1 (centres unmarked) [Example 643, {3-[5-amino-6-(3-pyrrolidin-3-yl-1H-1,2,4-triazol-5-yl)pyrazin-2-yl]phenyl}methanol] |
| > 7.30 | Nc1ncc(-c2cccc(C(=O)N[C@H]3CCc4ccccc43)c2)nc1C(=O)N[C@H]1CCNC1 [Example 644, 3-amino-6-(3-{[(1S)-2,3-dihydro-1H-inden-1-ylamino]carbonyl}phenyl)-N-[(3S)-pyrrolidin-3-yl]pyrazine-2-carboxamide] |
| 6.00 to 7.30 | Nc1ncc(-c2cccc(C(=O)N[C@H]3CCc4ccccc43)c2)nc1C(=O)N[C@@H]1CCNC1 [Example 645, 3-amino-6-(3-{[(1S)-2,3-dihydro-1H-inden-1-ylamino]carbonyl}phenyl)-N-[(3R)-pyrrolidin-3-yl]pyrazine-2-carboxamide] |
| 5.00 to 6.00 | Nc1ncc(-c2cccc(C(=O)N[C@H]3CCc4ccccc43)c2)nc1C(=O)N[C@H]1CCN(C(=O)c2ccco2)C1 [Example 646, 3-amino-6-(3-{[(1S)-2,3-dihydro-1H-inden-1-ylamino]carbonyl}phenyl)-N-[(3S)-1-(furan-2-ylcarbonyl)pyrrolidin-3-yl]pyrazine-2-carboxamide] |
| 5.00 to 6.00 | CC(=O)NCCCNC(=O)c1nc(-c2cccc(C(=O)NCc3ccccc3)c2)cnc1N [Example 647, N-[3-(acetylamino)propyl]-3-amino-6-(3-{[(phenylmethyl)amino]carbonyl}phenyl)pyrazine-2-carboxamide] |
